According to patent publication US20240325375A1, “Effect of YEL002 on Psychological and Psychiatric Factors in Health and Disease” (RadMit, Inc., priority 2023, published 2024):

Test system: lymphoma
Assay: Lymphoma incidence in mice (National Institute of Health experiment)
Format: in vivo
Settings: reduced from 10-20%
Method: In another experiment at the National Institute of Health, in other mice after radiation exposure which caused 90% of them to develop lymphoma, there was a reduction of the lymphoma incidence to 40% and the spontaneous frequency was reduced from 10-20% down to 0%. […] This was observed after treating mice right after birth, if humans are treated later in life it is possible that only 10 or 5 years are added and probably more for DNA repair deficient diseases like ataxia telangiectasia (ATM) which is still very substantial, especially, since it treats and reduces the likelihood of many diseases.

For `COc1ccc2cc(-c3nc4ccc(C)cn4c3NCc3ccco3)c(=O)[nH]c2c1` [YEL002], the spontaneous lymphoma frequency was 0%.
